The record followed here is the OligoGym collection.

The data set has as its target HBV. The conditions noted are these: ASO.

Where “and” joins values, the source holds several entries; their conditions need not be identical. Equal values may be shown once. HELM strings list units from the 5' end as sugar, base in round brackets, then linkage (d deoxyribose, r ribose, m 2'-O-methyl, p phosphodiester). Methylation of C is not given here. [moe] = 2'-O-(2-methoxyethyl) (MOE); [cEt] = constrained ethyl (cEt); [sp] = phosphorothioate linkage

With “RNA1{[moe](A)[sp].[moe](G)[sp].d(G)[sp].d(A)[sp].d(G)[sp].d(T)[sp].d(T)[sp].d(C)[sp].d(C)[sp].d(G)[sp].d(C)[sp].[moe](A)[sp].[moe](G)[sp].[moe](T)[sp].[moe](A)[sp].[moe](T)[sp].[moe](G)}$$$$V2.0”, the target mRNA inhibition (HepG2, 0.07 µM) was 81% and 63%.
Still for that read-out and setting: with “RNA1{[moe](A)[sp].[moe](G)[sp].d(G)[sp].d(T)[sp].d(G)[sp].d(A)[sp].d(A)[sp].d(G)[sp].d(C)[sp].d(G)[sp].d(A)[sp].[moe](A)[sp].[moe](G)[sp].[moe](T)[sp].[moe](G)[sp].[moe](C)[sp].[moe](A)}$$$$V2.0” the figure was 72% and 69%; with “RNA1{[moe](A)[sp].[moe](G)[sp].d(T)[sp].d(T)[sp].d(C)[sp].d(C)[sp].d(G)[sp].d(C)[sp].d(A)[sp].d(G)[sp].d(T)[sp].[moe](A)[sp].[moe](T)[sp].[moe](G)[sp].[moe](G)[sp].[moe](A)[sp].[moe](T)}$$$$V2.0”, 68% and 70%.
Still for that read-out and setting: the value for “RNA1{[moe](A)[sp].[moe](T)[sp].[moe](G)[sp].[moe](A)[sp].d(G)[sp].d(G)[sp].d(C)[sp].d(A)[sp].d(T)[sp].d(A)[sp].d(G)[sp].d(C)[sp].d(A)[sp].[moe](G)[sp].[moe](C)[sp].[moe](A)[sp].[moe](G)}$$$$V2.0” was 0%; that for “RNA1{[moe](A)[sp].[moe](T)[sp].[moe](G)[sp].d(A)[sp].d(G)[sp].d(G)[sp].d(C)[sp].d(A)[sp].d(T)[sp].d(A)[sp].d(G)[sp].d(C)[sp].d(A)[sp].[cEt](G)[sp].[cEt](C)[sp].[cEt](A)}$$$$V2.0” was 71% and 73%.
Regarding “RNA1{[moe](A)[sp].[moe](T)[sp].[moe](T)[sp].[cEt](T)[sp].d(A)[sp].d(T)[sp].d(G)[sp].d(C)[sp].d(C)[sp].d(T)[sp].d(A)[sp].d(C)[sp].d(A)[sp].[cEt](G)[sp].[moe](C)[sp].[moe](C)[sp].[moe](T)}$$$$V2.0”, the target mRNA inhibition reads like this: (HepG2, 0.009375 µM) 32%; (HepG2, 0.01875 µM) 32%; (HepG2, 0.0375 µM) 42%; (HepG2, 0.075 µM) 62%; (HepG2, 0.15 µM) 76%; (HepG2, 0.3 µM) 80%.
For the substance “RNA1{[moe](A)[sp].[moe](T)[sp].[moe](T)[sp].[moe](T)[sp].d(A)[sp].d(T)[sp].d(G)[sp].d(C)[sp].d(C)[sp].d(T)[sp].d(A)[sp].d(C)[sp].d(A)[sp].[moe](G)[sp].[moe](C)[sp].[moe](C)}$$$$V2.0”, for the setting “HepG2, 0.07 µM”, the target mRNA inhibition is 52% and 49%.
As for “RNA1{[moe](A)[sp].[moe](T)[sp].[moe](T)[sp].d(T)[sp].d(A)[sp].d(T)[sp].d(G)[sp].d(C)[sp].d(C)[sp].d(T)[sp].d(A)[sp].d(C)[sp].d(A)[sp].[moe](G)[sp].[moe](C)[sp].[moe](C)[sp].[moe](T)}$$$$V2.0”, the target mRNA inhibition is 3% (HepG2, 0.0092593 µM); 11% (HepG2, 0.0277778 µM); 13% (HepG2, 0.0833333 µM); 41% (HepG2, 0.25 µM).
Substance “RNA1{[moe](A)[sp].[moe](T)[sp].d(G)[sp].d(A)[sp].d(G)[sp].d(G)[sp].d(C)[sp].d(A)[sp].d(T)[sp].d(A)[sp].d(G)[sp].[moe](C)[sp].[moe](A)[sp].[moe](G)[sp].[moe](C)[sp].[moe](A)[sp].[moe](G)}$$$$V2.0” registered a target mRNA inhibition (HepG2, 0.07 µM) of 64%.
Still for that read-out and setting: the value for “RNA1{[moe](C)[sp].[cEt](A)[sp].[cEt](C)[sp].d(A)[sp].d(G)[sp].d(C)[sp].d(T)[sp].d(T)[sp].d(G)[sp].d(G)[sp].d(A)[sp].d(G)[sp].d(G)[sp].[cEt](C)[sp].[cEt](T)[sp].[moe](T)}$$$$V2.0” was 11% and 0%; that for “RNA1{[moe](C)[sp].[cEt](A)[sp].[cEt](C)[sp].d(G)[sp].d(A)[sp].d(G)[sp].d(T)[sp].d(C)[sp].d(T)[sp].d(A)[sp].d(G)[sp].d(A)[sp].d(C)[sp].[cEt](T)[sp].[cEt](C)[sp].[moe](T)}$$$$V2.0” was 44% and 38%.
In the case of “RNA1{[moe](C)[sp].[cEt](A)[sp].[cEt](G)[sp].d(C)[sp].d(T)[sp].d(T)[sp].d(G)[sp].d(G)[sp].d(A)[sp].d(G)[sp].d(G)[sp].d(C)[sp].d(T)[sp].[cEt](T)[sp].[cEt](G)[sp].[moe](A)}$$$$V2.0”, the target mRNA inhibition (HepG2, 0.07 µM) is 5% and 12%.
In the case of “RNA1{[moe](C)[sp].[cEt](C)[sp].[cEt](A)[sp].d(C)[sp].d(A)[sp].d(T)[sp].d(C)[sp].d(A)[sp].d(T)[sp].d(C)[sp].d(C)[sp].d(A)[sp].d(T)[sp].[cEt](A)[sp].[cEt](T)[sp].[moe](A)}$$$$V2.0”, where the note is “HepG2, 0.07 µM”, the target mRNA inhibition was 60% and 50%.
Still for that read-out and setting: the value for “RNA1{[moe](C)[sp].[cEt](C)[sp].[cEt](G)[sp].d(C)[sp].d(A)[sp].d(G)[sp].d(T)[sp].d(A)[sp].d(T)[sp].d(G)[sp].d(G)[sp].d(A)[sp].d(T)[sp].[cEt](C)[sp].[cEt](G)[sp].[moe](G)}$$$$V2.0” was 63% and 52%.
Regarding “RNA1{[moe](C)[sp].[cEt](G)[sp].[cEt](G)[sp].d(G)[sp].d(C)[sp].d(A)[sp].d(A)[sp].d(C)[sp].d(A)[sp].d(T)[sp].d(A)[sp].d(C)[sp].d(C)[sp].[cEt](T)[sp].[cEt](T)[sp].[moe](G)}$$$$V2.0”, where the note is “HepG2, 0.07 µM”, the target mRNA inhibition was 61% and 63%.
The same measure, in the same setting: the value for “RNA1{[moe](C)[sp].[cEt](G)[sp].[cEt](T)[sp].d(G)[sp].d(C)[sp].d(A)[sp].d(G)[sp].d(A)[sp].d(G)[sp].d(G)[sp].d(T)[sp].d(G)[sp].d(A)[sp].[cEt](A)[sp].[cEt](G)[sp].[moe](C)}$$$$V2.0” was 68% and 65%; that for “RNA1{[moe](C)[sp].[cEt](G)[sp].d(T)[sp].d(G)[sp].d(C)[sp].d(A)[sp].d(G)[sp].d(A)[sp].d(G)[sp].d(G)[sp].d(T)[sp].d(G)[sp].[cEt](A)[sp].[moe](A)[sp].[cEt](G)[sp].[moe](C)}$$$$V2.0” was 76% and 79%.
For “RNA1{[moe](C)[sp].[cEt](T)[sp].d(G)[sp].d(A)[sp].d(A)[sp].d(C)[sp].d(A)[sp].d(A)[sp].d(A)[sp].d(T)[sp].d(G)[sp].d(G)[sp].[cEt](C)[sp].[moe](A)[sp].[cEt](C)[sp].[moe](T)}$$$$V2.0”, where the note is “HepG2, 0.07 µM”, the target mRNA inhibition is 58% and 71%.
Still for that read-out and setting: the value for “RNA1{[moe](C)[sp].[moe](A)[sp].[moe](A)[sp].[moe](T)[sp].[moe](T)[sp].d(T)[sp].d(A)[sp].d(T)[sp].d(G)[sp].d(C)[sp].d(C)[sp].d(T)[sp].d(A)[sp].d(C)[sp].[moe](A)[sp].[moe](G)[sp].[moe](C)}$$$$V2.0” was 30% and 13%.
On to “RNA1{[moe](C)[sp].[moe](A)[sp].[moe](C)[sp].d(T)[sp].d(A)[sp].d(G)[sp].d(T)[sp].d(A)[sp].d(A)[sp].d(A)[sp].d(C)[sp].d(T)[sp].[moe](G)[sp].[moe](A)[sp].[moe](G)[sp].[moe](C)[sp].[moe](C)}$$$$V2.0”, for which, under “HepG2, 0.07 µM”, the target mRNA inhibition is 54% and 37%.
Still for that read-out and setting: with “RNA1{[moe](C)[sp].[moe](A)[sp].[moe](G)[sp].[moe](A)[sp].[moe](G)[sp].d(G)[sp].d(T)[sp].d(G)[sp].d(A)[sp].d(A)[sp].d(G)[sp].d(C)[sp].d(G)[sp].d(A)[sp].[moe](A)[sp].[moe](G)}$$$$V2.0” the figure was 60% and 57%.
